Data: patent publication US11713335B2, “Aminocoumarin compounds and methods of their use” (President and Fellows of Harvard College, priority 2018, dated 2023)
Converted amounts (≈) assume the structure as drawn. Like-named read-outs stand apart in the source and are kept apart here.

How the values were obtained:
[1] = test system: E. coli 25922; experiment: Minimal inhibitory concentration, E. coli 25922; type: cell-based; details: 16 hour minimal inhibitory concentration at 37° C., read-out: MIC (μM) E. coli 25922
Method in brief: (§1)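 Saturated overnight cultures in LB (TSA for S. aureus), grown at 37 °C with shaking, were diluted 1:100 twice and exposed to twofold serial dilutions of compound from DMSO stock. After 16 h static incubation at 37 °C, OD600 was read; MIC is the lowest concentration inhibiting growth, reported in µM.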

[2] = test system: S. aureus MW2; experiment: Minimal inhibitory concentration, S. aureus MW2; type: cell-based; details: 16 hour minimal inhibitory concentration at 37° C., read-out: MIC (μM) S. aureus MW2 (MRSA)
Method in brief: as §1

[3] = test system: E. coli MC4100; experiment: Minimal inhibitory concentration, E. coli MC4100; type: cell-based; details: 16 hour minimal inhibitory concentration at 37° C., read-out: MIC (μM) E. coli MC4100 ara+
Method in brief: as §1

[4] = test system: WT E. coli; experiment: Minimal inhibitory concentration in wild-type E. coli; type: cell-based, Escherichia coli; details: wild-type E. coli, 37° C., 16 hours, read-out: MIC (μM) in WT E. coli
Method: General Procedure for Determination of Minimal Inhibitory Concentrations
Overnight cultures (5 mL) of bacterial strains were grown in LB media or TSA media (for S. aureus) at 37° C. and with shaking at 220 rpm until saturation. The overnight culture was diluted serially 1:100 (50 μL in 5 mL sterile media) and then 1:100 (250 μL in 25 mL sterile media). The 25 mL of diluted culture was then dispensed to a sterile 96 well plate (Corning #3370). 198 μL of culture were dispensed into row A and 100 μL of this culture were dispensed into rows B-H. Aminocoumarin compound (DMSO stock) were added to the first row and then the row was mixed by pipetting. 100 μL of culture from row A were transferred to row B and the serial dilution continued until the final 100 μL from row H were discarded. The plate was incubated without shaking in a 37° C. for 16 hours and then read by visible light spectrophotometer (Molecular Devices) at 600 nm. The minimal inhibitory concentration (MIC) was determined as the lowest concentration of compound concentration that inhibited the growth of bacteria.

[5] = test system: E. cloacae 13047; experiment: Minimal inhibitory concentration, E. cloacae 13047; type: cell-based; details: 16 hour minimal inhibitory concentration at 37° C., read-out: MIC (μM) E. cloacae 13047
Method in brief: as §1

[6] = test system: K. pneumoniae 700721; experiment: Minimal inhibitory concentration, K. pneumoniae 700721; type: cell-based; details: 16 hour minimal inhibitory concentration at 37° C., read-out: MIC (μM) K. pneumoniae 700721
Method in brief: as §1

[7] = test system: A. baumannii 19606; experiment: Minimal inhibitory concentration, A. baumannii 19606; type: cell-based; details: 16 hour minimal inhibitory concentration at 37° C., read-out: MIC (μM) A. baumannii 19606
Method in brief: as §1

[8] = test system: S. aureus RN4220; experiment: Minimal inhibitory concentration, S. aureus RN4220; type: cell-based; details: 16 hour minimal inhibitory concentration at 37° C., read-out: MIC (μM) S. aureus RN4220
Method in brief: as §1

[9] = Staphylococcus aureus, MRSA, 16 h
[10] = Acinetobacter baumannii, 19606, 16 h
[11] = Staphylococcus aureus, RN4220, 16 h

| SMILES | MIC ([1]; Escherichia coli, 25922, 16 h) [µM] | MIC [2, 9] [µM] | MIC ([3]; Escherichia coli, MC4100, 16 h) [µM] | MIC ([4]; Escherichia coli) [µM] | MIC ([5]; Enterobacter cloacae, 13047) [µM] | MIC ([6]; Klebsiella pneumoniae, 700721) [µM] | MIC [7, 10] [µM] | MIC [8, 11] [µM] | MIC [1] [µM] | MIC [2] [µM] | MIC [3] [µM] | MIC [4] [µM] | MIC [5] [µM] | MIC [6] [µM] | MIC [7] [µM] | MIC [8] [µM] |
| --- | --- | --- | --- | --- | --- | --- | --- | --- | --- | --- | --- | --- | --- | --- | --- | --- |
| CO[C@@H]1[C@@H](OC(N)=O)[C@@H](O)[C@H](Oc2ccc3c(O)c(NC(=O)C(c4ccccc4)c4ccccc4)c(=O)oc3c2C)OC1(C)C [Compound 5] | > 200 | 80 (≈ 49.5 µg/mL) | > 200 | > 300 | > 100 | > 100 | > 50 | > 100 |  |  |  |  |  |  |  |  |
| CO[C@@H]1[C@@H](OC(N)=O)[C@@H](O)[C@H](Oc2ccc3c(O)c(NC(=O)/C=C/c4ccccc4)c(=O)oc3c2C)OC1(C)C [Compound 27] | > 200 | 23 (≈ 12.8 µg/mL) | > 200 | > 300 | > 100 | > 100 | > 50 | 45 (≈ 25 µg/mL) |  |  |  |  |  |  |  |  |
| CO[C@@H]1[C@@H](OC(N)=O)[C@@H](O)[C@H](Oc2ccc3c(O)c(NC(=O)c4cccc(-c5cccs5)c4)c(=O)oc3c2C)OC1(C)C [Compound 22] | 164 (≈ 100 µg/mL) | 10 (≈ 6.11 µg/mL) | 89 (≈ 54.3 µg/mL) | 89 (≈ 54.3 µg/mL) | > 100 | > 100 | > 50 | 10 (≈ 6.11 µg/mL) |  |  |  |  |  |  |  |  |
| CO[C@@H]1[C@@H](OC(N)=O)[C@@H](O)[C@H](Oc2ccc3c(O)c(NC(=O)c4cccc(-c5ccc6ccccc6c5)c4)c(=O)oc3c2C)OC1(C)C [Compound 39] |  |  |  |  |  |  |  |  | 153 (≈ 100 µg/mL) | 0.1 (≈ 0.0655 µg/mL) | >200 | >300 | >100 | >100 | 5 (≈ 3.27 µg/mL) | 0.19 (≈ 0.124 µg/mL) |
| CO[C@@H]1[C@@H](OC(N)=O)[C@@H](O)[C@H](Oc2ccc3c(O)c(NC(=O)c4cccc(-c5ccccc5F)c4)c(=O)oc3c2C)OC1(C)C [Compound 37] | 80 (≈ 49.8 µg/mL) | 10 (≈ 6.23 µg/mL) | 59 (≈ 36.7 µg/mL) | 59 (≈ 36.7 µg/mL) | > 100 | > 100 | > 50 | 10 (≈ 6.23 µg/mL) |  |  |  |  |  |  |  |  |
| CO[C@@H]1[C@@H](OC(N)=O)[C@@H](O)[C@H](Oc2ccc3c(O)c(NC(=O)c4cc5ccccc5o4)c(=O)oc3c2C)OC1(C)C [Compound 6] | > 200 | 88 (≈ 50 µg/mL) | > 200 | > 300 | > 100 | > 100 | > 50 | 88 (≈ 50 µg/mL) |  |  |  |  |  |  |  |  |
| CO[C@@H]1[C@@H](OC(N)=O)[C@@H](O)[C@H](Oc2ccc3c(O)c(NC(=O)c4cccc(Oc5ccccc5)c4)c(=O)oc3c2C)OC1(C)C [Compound 35] | 10 (≈ 6.21 µg/mL) | 20 (≈ 12.4 µg/mL) | 8 (≈ 4.96 µg/mL) | 8 (≈ 4.96 µg/mL) | > 100 | > 100 | > 50 | 40 (≈ 24.8 µg/mL) |  |  |  |  |  |  |  |  |
| CO[C@@H]1[C@@H](OC(N)=O)[C@@H](O)[C@H](Oc2ccc3c(O)c(NC(=O)c4cccc(-c5ccc(Cl)cc5)c4)c(=O)oc3c2C)OC1(C)C [Compound 33] | 20 (≈ 12.8 µg/mL) | 0.98 (≈ 0.626 µg/mL) | 18 (≈ 11.5 µg/mL) | 18 (≈ 11.5 µg/mL) | > 100 | > 100 | 39 (≈ 24.9 µg/mL) | 1.96 (≈ 1.25 µg/mL) |  |  |  |  |  |  |  |  |
| CO[C@@H]1[C@@H](OC(N)=O)[C@@H](O)[C@H](Oc2ccc3c(O)c(NC(=O)c4cccc(-c5ccc(C(F)(F)F)cc5)c4)c(=O)oc3c2C)OC1(C)C [Compound 55] |  |  |  |  |  |  |  |  | >200 | 0.93 (≈ 0.626 µg/mL) | >200 | >300 | >100 | >100 | 37 (≈ 24.9 µg/mL) | 1.49 (≈ 1 µg/mL) |
| CO[C@@H]1[C@@H](OC(N)=O)[C@@H](O)[C@H](Oc2ccc3c(O)c(NC(=O)c4ccc5c(ccn5C)c4)c(=O)oc3c2C)OC1(C)C [Compound 72] |  |  |  |  |  |  |  |  | >200 | 43 (≈ 25 µg/mL) | >200 | >300 | >100 | >100 | >50 | 86 (≈ 50 µg/mL) |
| CO[C@@H]1[C@@H](OC(N)=O)[C@@H](O)[C@H](Oc2ccc3c(O)c(NC(=O)c4cccc(S(F)(F)(F)(F)F)c4)c(=O)oc3c2C)OC1(C)C [Compound 26] | > 200 | > 100 | > 200 | > 300 | > 100 | > 100 | > 50 | > 100 |  |  |  |  |  |  |  |  |
| CO[C@@H]1[C@@H](OC(N)=O)[C@@H](O)[C@H](Oc2ccc3c(O)c(NC(=O)c4cc(O)c(O)c(-c5ccc(F)cc5)c4)c(=O)oc3c2C)OC1(C)C [Compound 95] |  |  |  |  |  |  |  |  | 38 (≈ 24.9 µg/mL) | 38 (≈ 24.9 µg/mL) | 38 (≈ 24.9 µg/mL) | 38 (≈ 24.9 µg/mL) | >100 | >100 | >50 | 38 (≈ 24.9 µg/mL) |
| COc1ccc(-c2cccc(C(=O)Nc3c(O)c4ccc(O[C@@H]5OC(C)(C)[C@H](OC)[C@@H](OC(N)=O)[C@H]5O)c(C)c4oc3=O)c2)cc1 [Compound 46] | > 200 | 3 (≈ 1.9 µg/mL) | > 200 | > 300 | > 100 | > 100 | > 50 | 5 (≈ 3.17 µg/mL) |  |  |  |  |  |  |  |  |
| CO[C@@H]1[C@@H](OC(N)=O)[C@@H](O)[C@H](Oc2ccc3c(O)c(NC(=O)c4ccc(O)c(CCC(N)=O)c4)c(=O)oc3c2C)OC1(C)C [Compound 91] |  |  |  |  |  |  |  |  | >200 | >100 | >200 | >300 | >100 | >100 | >50 | >100 |
| CO[C@@H]1[C@@H](OC(N)=O)[C@@H](O)[C@H](Oc2ccc3c(O)c(NC(=O)c4cccc(-c5ccccc5)c4)c(=O)oc3c2C)OC1(C)C [Compound 1] | 41 (≈ 24.8 µg/mL) | 5 (≈ 3.02 µg/mL) | 26 (≈ 15.7 µg/mL) | 26 (≈ 15.7 µg/mL) | > 100 | > 100 | > 50 | 5 (≈ 3.02 µg/mL) |  |  |  |  |  |  |  |  |
| CO[C@@H]1[C@@H](OC(N)=O)[C@@H](O)[C@H](Oc2ccc3c(O)c(NC(=O)c4cccc(N5CCN(C)CC5)c4)c(=O)oc3c2C)OC1(C)C [Compound 52] | 160 (≈ 100 µg/mL) | > 100 | > 200 | > 300 | > 100 | > 100 | > 50 | > 100 |  |  |  |  |  |  |  |  |
| CO[C@@H]1[C@@H](OC(N)=O)[C@@H](O)[C@H](Oc2ccc3c(O)c(NC(=O)Cc4ccccc4)c(=O)oc3c2C)OC1(C)C [Compound 42] |  |  |  |  |  |  |  |  | >200 | >100 | >200 | >300 | >100 | >100 | >50 | >100 |
| CO[C@@H]1[C@@H](OC(N)=O)[C@@H](O)[C@H](Oc2ccc3c(O)c(NC(=O)c4ccc(O)c(CC=C(C)C)c4)c(=O)oc3c2C)OC1(C)C [Novobiocin, novobiocin, reference compound] | 40 (≈ 24.5 µg/mL) | 0.25 (≈ 0.153 µg/mL) | 59 (≈ 36.1 µg/mL) | 59 (≈ 36.1 µg/mL) | > 100 | > 100 | 1.27 (≈ 0.778 µg/mL) | 0.2 (≈ 0.123 µg/mL) |  |  |  |  |  |  |  |  |
| CO[C@@H]1[C@@H](OC(N)=O)[C@@H](O)[C@H](Oc2ccc3c(O)c(NC(=O)c4cccc(-c5ccccc5[N+](=O)[O-])c4)c(=O)oc3c2C)OC1(C)C [Compound 64] |  |  |  |  |  |  |  |  | >200 | 39 (≈ 25.3 µg/mL) | >200 | >300 | >100 | >100 | >50 | 77 (≈ 50 µg/mL) |
